# From US6355799B1, “Substituted benzene compounds, process for their preparation, and herbicidal and defoliant compositions containing them” (ISK Americas Incorporated, priority 1997, dated 2002)
# Columns and labels:
# Type in all cases: in vivo
# [1] = test system: upland rice (Oryza sp., var. Tebonnet, RICE); assay: Post-emerge test, crop safety; conditions: post-emerge, 14 days after application, rating scale 0-100
# Method in brief: (§1)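 Plants grown in 10 cm pots of sandy loam mix received acetone-dissolved compounds through a moving flat-fan nozzle. Doses ranged from 15 to 1000 g ai/ha. Pre-emerge pots were seeded one day earlier, post-emerge pots 8–21 days earlier. Fourteen days on, each pot was graded 0–100 for damage.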
# [2] = test system: field corn (Zea mays L., var. Dekalb 535, CORN); assay: Post-emerge test, crop safety; conditions: post-emerge, 14 days after application, rating scale 0-100
# Method in brief: as §1
# [3] = test system: upland rice (Oryza sp., var. Tebonnet, RICE); assay: Pre-emerge test, crop safety; conditions: rated 14 days after application, 0 = no damage, 100 = complete death
# Method in brief: (§2)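 Visual ratings on a 0-100 scale (0 no damage, 100 all plants dead) were taken at 14 days after treatment. Rates of 15-1000 g ai/ha in acetone, 187 l/ha, were sprayed onto soil one day after planting (pre-emerge) or onto 2-3 leaf plants with 0.25% v/v surfactant (post-emerge).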
# [4] = test system: field corn (Zea mays L., var. Dekalb 535, CORN); assay: Pre-emerge test, crop safety; conditions: rated 14 days after application, 0 = no damage, 100 = complete death
# Method in brief: as §2
# [5] = test system: redroot pigweed (Amaranthus retroflexus, AMARE); assay: Pre-emerge test, greenhouse herbicide activity screening; conditions: rated 14 days after application, 0 = no damage, 100 = complete death
# Method in brief: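 Herbicidal damage is scored 0 (none) to 100 (complete plant death) two weeks after a simulated field spray. Rates span 15–1000 g ai/ha, delivered in acetone at 187 l/ha. For post-emergence treatments, plants have 2–3 leaves and the spray carries 0.25% v/v non-ionic surfactant.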
# [6] = test system: green foxtail (Setaria viridis, SETVI); assay: as above; conditions: rated 14 days after application, 0 = no damage, 100 = complete death
# Method in brief: (§3)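 Rating: 0–100 visual injury, 14 DAA. Application: acetone, 187 l/ha, 15–1000 g ai/ha, flat-fan track sprayer with nozzle 40–45 cm above soil or canopy. Post-emerge runs used 0.25% v/v surfactant on 2–3 leaf plants.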
# [7] = test system: lambsquarters (Chenopodium album, CHEAL); assay: as above; conditions: rated 14 days after application, 0 = no damage, 100 = complete death
# Method in brief: as §3
# [8] = test system: sicklepod (Cassia obtusifolia, CASOB); assay: as above; conditions: rated 14 days after application, 0 = no damage, 100 = complete death
# Method in brief: as §3
# [9] = test system: velvetleaf (Abutilon theophrasti, ABUTH); assay: as above; conditions: rated 14 days after application, 0 = no damage, 100 = complete death
# Method in brief: as §3
# [10] = test system: large crabgrass (Digitaria sanguinalis, DIGSA); assay: as above; conditions: rated 14 days after application, 0 = no damage, 100 = complete death
# Method in brief: as §3
# [11] = test system: barnyardgrass (Echinochloa crus-galli, ECHCG); assay: as above; conditions: rated 14 days after application, 0 = no damage, 100 = complete death
# Method in brief: as §3
# [12] = test system: ivyleaf morningglory (Ipomoea hederacea, IPOHE); assay: as above; conditions: rated 14 days after application, 0 = no damage, 100 = complete death
# Method in brief: as §3
# [13] = test system: johnsongrass (Sorghum halepense, SORHA); assay: as above; conditions: rated 14 days after application, 0 = no damage, 100 = complete death
# Method in brief: as §3
# [14] = test system: common ragweed (Ambrosia artemisizfolia L., AMBEL); assay: Post-emerge test, greenhouse herbicide activity screening; conditions: post-emerge, 14 days after application, rating scale 0-100
# Method in brief: (§4)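 Each test used a mechanized track sprayer delivering 187 l/ha of acetone solution at 15–1000 g ai/ha. Post-emerge foliage at 2–3 leaves was treated with added 0.25% v/v non-ionic surfactant and bottom-watered only. Injury was assessed on day 14, where 100 means total kill.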
# [15] = test system: green foxtail (Setaria viridis, SETVI); assay: as above; conditions: post-emerge, 14 days after application, rating scale 0-100
# Method in brief: as §4
# [16] = test system: lambsquarters (Chenopodium album, CHEAL); assay: as above; conditions: post-emerge, 14 days after application, rating scale 0-100
# Method in brief: as §4
# [17] = test system: sicklepod (Cassia obtusifolia, CASOB); assay: as above; conditions: post-emerge, 14 days after application, rating scale 0-100
# Method in brief: as §4
# [18] = test system: velvetleaf (Abutilon theophrasti, ABUTH); assay: as above; conditions: post-emerge, 14 days after application, rating scale 0-100
# Method in brief: as §4
# [19] = test system: large crabgrass (Digitaria sanguinalis, DIGSA); assay: as above; conditions: post-emerge, 14 days after application, rating scale 0-100
# Method in brief: as §4
# [20] = test system: barnyardgrass (Echinochloa crus-galli, ECHCG); assay: as above; conditions: post-emerge, 14 days after application, rating scale 0-100
# Method in brief: as §4
# [21] = test system: ivyleaf morningglory (Ipomoea hederacea, IPOHE); assay: as above; conditions: post-emerge, 14 days after application, rating scale 0-100
# Method in brief: as §4
# [22] = test system: johnsongrass (Sorghum halepense, SORHA); assay: as above; conditions: post-emerge, 14 days after application, rating scale 0-100
# Method in brief: as §4
# [23] = test system: redroot pigweed (Amaranthus retroflexus, AMARE); assay: as above; conditions: post-emerge, 14 days after application, rating scale 0-100
# Method in brief: as §4
smiles,measurement,setting,value
COc1c(Cl)cc(F)c(-n2c(=O)cc(C(F)(F)F)n(C)c2=O)c1NC(=O)c1cnc2ccccc2n1 [2-105],phytotoxicity rating RICE,[1]; 63 g ai/ha,0
same,phytotoxicity rating RICE,[1]; 250 g ai/ha,30
same,phytotoxicity rating CORN,[2]; 63 g ai/ha,0
same,phytotoxicity rating CORN,[2]; 250 g ai/ha,10
same,"Pre-emerge phytotoxicity rating (0-100), crop damage, RICE",[3]; 63 g ai/ha,50
same,"Pre-emerge phytotoxicity rating (0-100), crop damage, RICE",[3]; 250 g ai/ha,70
same,"Pre-emerge phytotoxicity rating (0-100), crop damage, CORN",[4]; 63 g ai/ha,10
same,"Pre-emerge phytotoxicity rating (0-100), crop damage, CORN",[4]; 250 g ai/ha,10
same,"Pre-emerge Herbicidal Activity, phytotoxicity rating (0-100), AMARE",[5]; 63 g ai/ha,100
same,"Pre-emerge Herbicidal Activity, phytotoxicity rating (0-100), AMARE",[5]; 250 g ai/ha,100
same,"Pre-emerge Herbicidal Activity, phytotoxicity rating (0-100), SETVI",[6]; 63 g ai/ha,100
same,"Pre-emerge Herbicidal Activity, phytotoxicity rating (0-100), SETVI",[6]; 250 g ai/ha,100
same,"Pre-emerge Herbicidal Activity, phytotoxicity rating (0-100), CHEAL",[7]; 63 g ai/ha,100
same,"Pre-emerge Herbicidal Activity, phytotoxicity rating (0-100), CHEAL",[7]; 250 g ai/ha,100
same,"Pre-emerge Herbicidal Activity, phytotoxicity rating (0-100), CASOB",[8]; 63 g ai/ha,30
same,"Pre-emerge Herbicidal Activity, phytotoxicity rating (0-100), CASOB",[8]; 250 g ai/ha,60
same,"Pre-emerge Herbicidal Activity, phytotoxicity rating (0-100), ABUTH",[9]; 63 g ai/ha,100
same,"Pre-emerge Herbicidal Activity, phytotoxicity rating (0-100), ABUTH",[9]; 250 g ai/ha,100
same,"Pre-emerge Herbicidal Activity, phytotoxicity rating (0-100), DIGSA",[10]; 63 g ai/ha,90
same,"Pre-emerge Herbicidal Activity, phytotoxicity rating (0-100), DIGSA",[10]; 250 g ai/ha,100
same,"Pre-emerge Herbicidal Activity, phytotoxicity rating (0-100), ECHCG",[11]; 63 g ai/ha,20
same,"Pre-emerge Herbicidal Activity, phytotoxicity rating (0-100), ECHCG",[11]; 250 g ai/ha,100
same,"Pre-emerge Herbicidal Activity, phytotoxicity rating (0-100), IPOHE",[12]; 63 g ai/ha,20
same,"Pre-emerge Herbicidal Activity, phytotoxicity rating (0-100), IPOHE",[12]; 250 g ai/ha,95
same,"Pre-emerge Herbicidal Activity, phytotoxicity rating (0-100), SORHA",[13]; 63 g ai/ha,40
same,"Pre-emerge Herbicidal Activity, phytotoxicity rating (0-100), SORHA",[13]; 250 g ai/ha,95
same,phytotoxicity rating AMBEL,[14]; 63 g ai/ha,100
same,phytotoxicity rating AMBEL,[14]; 250 g ai/ha,100
same,phytotoxicity rating SETVI,[15]; 63 g ai/ha,70
same,phytotoxicity rating SETVI,[15]; 250 g ai/ha,100
same,phytotoxicity rating CHEAL,[16]; 63 g ai/ha,80
same,phytotoxicity rating CHEAL,[16]; 250 g ai/ha,90
same,phytotoxicity rating CASOB,[17]; 63 g ai/ha,80
same,phytotoxicity rating CASOB,[17]; 250 g ai/ha,80
same,phytotoxicity rating ABUTH,[18]; 63 g ai/ha,100
same,phytotoxicity rating ABUTH,[18]; 250 g ai/ha,100
same,phytotoxicity rating DIGSA,[19]; 63 g ai/ha,0
same,phytotoxicity rating DIGSA,[19]; 250 g ai/ha,10
same,phytotoxicity rating ECHCG,[20]; 63 g ai/ha,10
same,phytotoxicity rating ECHCG,[20]; 250 g ai/ha,30
same,phytotoxicity rating IPOHE,[21]; 63 g ai/ha,100
same,phytotoxicity rating IPOHE,[21]; 250 g ai/ha,100
same,phytotoxicity rating SORHA,[22]; 63 g ai/ha,0
same,phytotoxicity rating SORHA,[22]; 250 g ai/ha,30
same,phytotoxicity rating AMARE,[23]; 63 g ai/ha,100
same,phytotoxicity rating AMARE,[23]; 250 g ai/ha,100
